Measurements taken from patent publication US9492471B2, “Methods of treating a disease or disorder associated with Bruton'S Tyrosine Kinase” (Celgene Avilomics Research, Inc., priority 2013, dated 2016).
Read-outs that look alike come from different tables or passages of the source.

Experiments:
Assay in all cases: HotSpot kinase profiling
Format in all cases: biochemical
PKD2/PRKD2 = target: T1, PKD2/PRKD2 (Homo sapiens, UniProt Q9BZL6)
T1 construct: purchased Reaction Biology Corp
T1 sequence (Q9BZL6 1-878): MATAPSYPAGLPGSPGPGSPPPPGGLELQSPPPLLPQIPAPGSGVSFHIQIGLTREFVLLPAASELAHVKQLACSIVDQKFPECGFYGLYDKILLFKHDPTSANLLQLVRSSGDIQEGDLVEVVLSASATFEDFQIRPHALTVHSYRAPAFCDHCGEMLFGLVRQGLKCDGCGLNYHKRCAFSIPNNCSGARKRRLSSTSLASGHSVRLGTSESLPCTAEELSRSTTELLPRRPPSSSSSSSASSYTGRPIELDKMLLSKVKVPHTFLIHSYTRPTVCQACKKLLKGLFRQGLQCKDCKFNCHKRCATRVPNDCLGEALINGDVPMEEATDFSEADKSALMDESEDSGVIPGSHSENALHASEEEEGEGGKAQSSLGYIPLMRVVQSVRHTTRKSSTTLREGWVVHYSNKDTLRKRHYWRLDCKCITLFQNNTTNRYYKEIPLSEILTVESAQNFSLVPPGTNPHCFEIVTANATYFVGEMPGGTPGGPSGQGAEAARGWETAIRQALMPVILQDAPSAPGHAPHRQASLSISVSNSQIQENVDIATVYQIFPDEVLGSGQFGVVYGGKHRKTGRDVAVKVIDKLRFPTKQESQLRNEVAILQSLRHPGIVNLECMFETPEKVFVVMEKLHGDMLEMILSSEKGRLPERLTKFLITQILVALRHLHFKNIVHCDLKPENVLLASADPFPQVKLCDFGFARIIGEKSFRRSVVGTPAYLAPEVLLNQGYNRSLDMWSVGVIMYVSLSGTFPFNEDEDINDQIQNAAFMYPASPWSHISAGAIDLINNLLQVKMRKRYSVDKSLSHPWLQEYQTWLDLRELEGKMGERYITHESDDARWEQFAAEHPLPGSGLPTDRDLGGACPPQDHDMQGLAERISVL
How it was run: (§1)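 Percent inhibition, averaged when run more than once and referenced to a DMSO negative control, came from a radioactive filter-binding readout on P81 paper. Reactions of kinase with freshly made substrate and cofactors ran for 2 h at room temperature.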

FGFR4 = target: T2, FGFR4 (Homo sapiens, UniProt P22455)
T2 construct: purchased Reaction Biology Corp
How it was run: as §1

CAMK2a = target: T3, CAMK2a (Homo sapiens, UniProt Q9UQM7)
T3 construct: purchased Reaction Biology Corp
How it was run: as §1

HCK = target: T4, HCK (Homo sapiens, UniProt P08631)
T4 construct: purchased Reaction Biology Corp
How it was run: as §1

EPHA2 = target: T5, EPHA2 (Homo sapiens, UniProt P29317)
T5 construct: purchased Reaction Biology Corp
How it was run: as §1

STK38L/NDR2 = target: T6, STK38L/NDR2 (Homo sapiens, UniProt Q9Y2H1)
T6 construct: purchased Reaction Biology Corp
How it was run: as §1

P38a/MAPK14 = target: T7, P38a/MAPK14 (Homo sapiens, UniProt Q16539)
T7 construct: purchased Reaction Biology Corp
How it was run: as §1

MST1/STK4 = target: T8, MST1/STK4 (Homo sapiens, UniProt Q13043)
T8 construct: purchased Reaction Biology Corp
T8 sequence (Q13043 1-487): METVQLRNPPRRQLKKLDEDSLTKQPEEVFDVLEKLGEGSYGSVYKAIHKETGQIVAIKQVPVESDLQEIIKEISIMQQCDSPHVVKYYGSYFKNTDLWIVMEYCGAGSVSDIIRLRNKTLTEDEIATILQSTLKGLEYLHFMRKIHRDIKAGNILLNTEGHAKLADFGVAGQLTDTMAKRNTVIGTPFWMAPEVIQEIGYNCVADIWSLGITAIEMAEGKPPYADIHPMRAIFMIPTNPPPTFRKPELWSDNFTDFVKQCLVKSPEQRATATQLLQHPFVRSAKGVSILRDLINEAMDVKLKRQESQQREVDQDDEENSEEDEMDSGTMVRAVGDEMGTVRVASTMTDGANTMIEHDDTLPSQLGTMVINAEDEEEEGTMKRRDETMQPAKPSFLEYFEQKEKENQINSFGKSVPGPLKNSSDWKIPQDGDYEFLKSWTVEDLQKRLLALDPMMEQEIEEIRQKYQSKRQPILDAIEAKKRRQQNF
How it was run: as §1

[1] = read-out: % Enzyme Activity (relative to DMSO controls) Run 1
[2] = read-out: % Enzyme Activity (relative to DMSO controls) Run 2

T5 sequence (P29317 24-976): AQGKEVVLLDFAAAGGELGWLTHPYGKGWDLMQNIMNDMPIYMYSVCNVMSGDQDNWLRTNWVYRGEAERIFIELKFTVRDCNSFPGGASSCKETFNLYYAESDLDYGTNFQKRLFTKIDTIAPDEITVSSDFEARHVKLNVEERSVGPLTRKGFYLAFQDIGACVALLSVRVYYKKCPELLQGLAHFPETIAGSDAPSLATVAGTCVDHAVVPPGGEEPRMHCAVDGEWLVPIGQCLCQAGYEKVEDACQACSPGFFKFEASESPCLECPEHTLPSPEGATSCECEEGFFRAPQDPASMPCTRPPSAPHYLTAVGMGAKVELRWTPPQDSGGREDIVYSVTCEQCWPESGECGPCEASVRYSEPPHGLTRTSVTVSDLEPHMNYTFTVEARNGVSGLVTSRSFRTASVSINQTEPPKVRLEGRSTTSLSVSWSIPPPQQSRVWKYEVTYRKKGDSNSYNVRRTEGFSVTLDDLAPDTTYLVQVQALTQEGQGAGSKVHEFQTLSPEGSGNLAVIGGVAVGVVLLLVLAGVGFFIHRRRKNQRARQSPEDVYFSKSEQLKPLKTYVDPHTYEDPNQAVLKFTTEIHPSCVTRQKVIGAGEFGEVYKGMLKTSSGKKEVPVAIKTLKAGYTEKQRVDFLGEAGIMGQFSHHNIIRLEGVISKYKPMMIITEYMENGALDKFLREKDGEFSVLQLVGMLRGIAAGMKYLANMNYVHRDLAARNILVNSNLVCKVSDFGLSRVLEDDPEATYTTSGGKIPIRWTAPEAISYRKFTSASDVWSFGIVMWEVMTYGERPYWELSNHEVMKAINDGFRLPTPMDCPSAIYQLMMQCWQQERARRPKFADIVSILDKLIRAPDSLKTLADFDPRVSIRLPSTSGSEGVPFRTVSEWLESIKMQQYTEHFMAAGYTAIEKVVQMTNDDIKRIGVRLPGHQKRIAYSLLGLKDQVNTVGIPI
T3 sequence (Q9UQM7 whole entry): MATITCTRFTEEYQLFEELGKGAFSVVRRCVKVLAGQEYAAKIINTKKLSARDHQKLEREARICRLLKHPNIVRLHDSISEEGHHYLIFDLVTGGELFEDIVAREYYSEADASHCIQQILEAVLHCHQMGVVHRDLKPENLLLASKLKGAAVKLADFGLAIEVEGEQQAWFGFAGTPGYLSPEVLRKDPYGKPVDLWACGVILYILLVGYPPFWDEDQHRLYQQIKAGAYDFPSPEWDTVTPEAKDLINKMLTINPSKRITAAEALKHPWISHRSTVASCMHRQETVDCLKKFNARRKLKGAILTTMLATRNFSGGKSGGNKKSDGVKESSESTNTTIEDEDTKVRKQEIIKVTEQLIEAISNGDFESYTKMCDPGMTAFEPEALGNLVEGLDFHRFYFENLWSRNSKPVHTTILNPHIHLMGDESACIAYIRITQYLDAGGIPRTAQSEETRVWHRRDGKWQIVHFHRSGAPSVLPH
T6 sequence (Q9Y2H1 whole entry): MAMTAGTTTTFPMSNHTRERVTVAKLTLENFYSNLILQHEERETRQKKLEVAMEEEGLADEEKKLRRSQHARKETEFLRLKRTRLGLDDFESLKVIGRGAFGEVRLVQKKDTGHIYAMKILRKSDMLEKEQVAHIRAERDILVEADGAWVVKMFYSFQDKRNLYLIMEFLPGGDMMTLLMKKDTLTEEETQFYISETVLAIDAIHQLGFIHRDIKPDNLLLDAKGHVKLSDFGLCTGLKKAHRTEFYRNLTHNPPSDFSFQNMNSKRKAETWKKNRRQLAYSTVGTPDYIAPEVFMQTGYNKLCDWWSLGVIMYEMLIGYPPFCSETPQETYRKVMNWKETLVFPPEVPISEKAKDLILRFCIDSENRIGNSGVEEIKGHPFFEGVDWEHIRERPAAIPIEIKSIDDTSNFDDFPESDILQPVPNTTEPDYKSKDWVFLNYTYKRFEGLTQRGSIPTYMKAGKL
T7 sequence (Q16539 whole entry): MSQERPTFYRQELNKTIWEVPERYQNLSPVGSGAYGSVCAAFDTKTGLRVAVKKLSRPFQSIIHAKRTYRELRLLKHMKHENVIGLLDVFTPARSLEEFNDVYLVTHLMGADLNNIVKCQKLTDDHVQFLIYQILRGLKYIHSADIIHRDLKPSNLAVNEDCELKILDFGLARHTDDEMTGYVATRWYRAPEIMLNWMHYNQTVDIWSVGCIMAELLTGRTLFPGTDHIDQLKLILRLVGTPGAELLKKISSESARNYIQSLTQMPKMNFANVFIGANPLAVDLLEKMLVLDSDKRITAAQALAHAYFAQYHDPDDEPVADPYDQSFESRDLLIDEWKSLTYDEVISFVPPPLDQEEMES
T2 sequence (P22455 22-802): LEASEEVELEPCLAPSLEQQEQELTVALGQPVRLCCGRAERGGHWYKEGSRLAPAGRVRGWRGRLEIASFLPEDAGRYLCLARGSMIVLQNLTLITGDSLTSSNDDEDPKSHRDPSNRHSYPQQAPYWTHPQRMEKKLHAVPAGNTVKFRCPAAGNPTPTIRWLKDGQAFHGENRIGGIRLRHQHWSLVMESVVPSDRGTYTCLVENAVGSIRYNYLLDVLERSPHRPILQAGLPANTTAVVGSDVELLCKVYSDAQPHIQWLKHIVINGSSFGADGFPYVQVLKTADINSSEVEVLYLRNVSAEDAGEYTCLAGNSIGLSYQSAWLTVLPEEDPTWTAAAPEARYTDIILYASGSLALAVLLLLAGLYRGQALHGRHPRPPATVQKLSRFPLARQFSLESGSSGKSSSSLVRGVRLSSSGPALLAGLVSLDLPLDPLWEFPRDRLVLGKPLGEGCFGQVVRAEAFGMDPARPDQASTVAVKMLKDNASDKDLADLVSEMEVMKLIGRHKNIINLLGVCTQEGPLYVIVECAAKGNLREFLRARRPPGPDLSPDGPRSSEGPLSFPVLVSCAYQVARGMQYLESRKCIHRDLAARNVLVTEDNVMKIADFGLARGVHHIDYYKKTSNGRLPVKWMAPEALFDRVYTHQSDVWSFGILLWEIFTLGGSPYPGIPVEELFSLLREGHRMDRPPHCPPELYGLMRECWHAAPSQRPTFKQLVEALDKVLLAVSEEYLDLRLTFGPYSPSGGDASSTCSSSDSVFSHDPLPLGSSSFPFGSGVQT
T4 sequence (P08631 whole entry): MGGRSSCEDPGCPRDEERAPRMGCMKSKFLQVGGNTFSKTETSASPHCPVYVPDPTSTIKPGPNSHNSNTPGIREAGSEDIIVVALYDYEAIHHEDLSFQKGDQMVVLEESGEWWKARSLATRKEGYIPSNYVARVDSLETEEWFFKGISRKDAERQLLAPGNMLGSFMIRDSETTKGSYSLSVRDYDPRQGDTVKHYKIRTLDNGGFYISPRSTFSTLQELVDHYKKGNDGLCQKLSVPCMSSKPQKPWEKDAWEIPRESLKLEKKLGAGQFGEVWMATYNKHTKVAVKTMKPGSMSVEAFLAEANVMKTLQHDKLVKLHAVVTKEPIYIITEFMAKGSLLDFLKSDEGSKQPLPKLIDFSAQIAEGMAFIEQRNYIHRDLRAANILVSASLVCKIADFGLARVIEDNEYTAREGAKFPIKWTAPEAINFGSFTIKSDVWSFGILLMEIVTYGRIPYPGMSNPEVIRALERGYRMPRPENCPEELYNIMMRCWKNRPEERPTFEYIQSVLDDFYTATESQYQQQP

C=CC(=O)Nc1cccc(Nc2nc(Nc3ccc(OCCOC)c(F)c3)ncc2F)c1 [Compound 2]
inhibition at 3 µM (PKD2/PRKD2): 13.7% | remaining activity at 3 µM (PKD2/PRKD2; [1]): 86.4% | remaining activity at 3 µM (PKD2/PRKD2; [2]): 86.2% | inhibition at 3 µM (FGFR4): 35.1% | remaining activity at 3 µM (FGFR4; [1]): 66.3% | remaining activity at 3 µM (FGFR4; [2]): 63.4% | inhibition at 3 µM (CAMK2a): -9.6% | remaining activity at 3 µM (CAMK2a; [1]): 109% | remaining activity at 3 µM (CAMK2a; [2]): 110% | inhibition at 3 µM (HCK): 29.5% | remaining activity at 3 µM (HCK; [1]): 72% | remaining activity at 3 µM (HCK; [2]): 69% | inhibition at 3 µM (EPHA2): 15.8% | remaining activity at 3 µM (EPHA2; [1]): 84.2% | remaining activity at 3 µM (EPHA2; [2]): 84.1% | inhibition at 3 µM (STK38L/NDR2): -1.33% | remaining activity at 3 µM (STK38L/NDR2; [1]): 107% | remaining activity at 3 µM (STK38L/NDR2; [2]): 96% | inhibition at 3 µM (P38a/MAPK14): -6.68% | remaining activity at 3 µM (P38a/MAPK14; [1]): 106% | remaining activity at 3 µM (P38a/MAPK14; [2]): 108% | inhibition at 3 µM (MST1/STK4): 30.6% | remaining activity at 3 µM (MST1/STK4; [1]): 70.2% | remaining activity at 3 µM (MST1/STK4; [2]): 68.7%
